A word on the Ki: it is a measure of affinity in units of concentration, obtained from inhibition or displacement. A word on the inhibition: it is the drop in the measured response relative to a control, in per cent. As usually defined, the IC50 is the concentration needed to halve the response being measured. A lower IC50 goes with greater potency.

For experiment [1], the target named is T1, hAT2R (Homo sapiens, UniProt P50052).
T1 sequence (P50052 1-363): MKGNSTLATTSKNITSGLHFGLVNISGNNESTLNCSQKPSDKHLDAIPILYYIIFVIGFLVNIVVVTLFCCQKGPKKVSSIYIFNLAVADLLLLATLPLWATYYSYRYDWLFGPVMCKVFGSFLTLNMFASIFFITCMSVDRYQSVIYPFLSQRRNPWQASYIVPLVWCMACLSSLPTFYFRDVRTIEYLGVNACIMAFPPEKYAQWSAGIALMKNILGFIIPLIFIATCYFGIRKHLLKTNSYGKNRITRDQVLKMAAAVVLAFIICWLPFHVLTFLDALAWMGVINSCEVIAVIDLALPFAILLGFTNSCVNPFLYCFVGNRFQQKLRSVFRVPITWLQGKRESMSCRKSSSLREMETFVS
It is filed as binding.

Experiment [2] addresses T2, hAT1R (Homo sapiens, UniProt P30556).
T2 sequence (P30556 1-359): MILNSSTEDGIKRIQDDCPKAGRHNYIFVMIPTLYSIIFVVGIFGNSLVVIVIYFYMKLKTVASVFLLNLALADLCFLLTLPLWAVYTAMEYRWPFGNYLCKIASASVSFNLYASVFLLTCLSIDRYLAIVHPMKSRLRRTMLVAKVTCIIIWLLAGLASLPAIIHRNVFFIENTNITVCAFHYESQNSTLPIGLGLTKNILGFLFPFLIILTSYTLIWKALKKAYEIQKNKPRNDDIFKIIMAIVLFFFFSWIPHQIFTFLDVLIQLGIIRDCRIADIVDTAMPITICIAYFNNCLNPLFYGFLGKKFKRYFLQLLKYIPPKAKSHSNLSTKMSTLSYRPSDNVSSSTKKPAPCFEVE
It is filed as binding. As to conditions: read-out: % Inhibition of hAT1R at 10 μM.

The target in experiment [3] is T1, hAT2R. The experiment can be described thus: Assay 2: whole cell competition binding assay, HEK293 cells expressing AT2R.
Experiment [4] addresses T2, hAT1R. The experiment can be described thus: Assay 2: whole cell competition binding assay, HEK293 cells expressing AT1R.

Where two headings read alike, the source gives them in different places.

For `CCOC(=O)NS(=O)(=O)c1sc(CC(C)C)cc1-c1ccc2c(c1)CN(C(=O)OCC)C2` [Compound 89], the Ki on hAT2R [1] stood at 1300 nM. Moreover, the “drop in hAT2R affinity compared to compound 86” value at hAT2R [1] (versus 86) is reported as 20 fold. The “decrease in hAT2R affinity compared to methyl carbamate 92” value on hAT2R [1] (versus 92) is listed as around 5 fold. Also, the inhibition at 10 µM at hAT1R [2] was determined as 26%.

In turn, `CCOC(=O)NS(=O)(=O)c1sc(CC(C)C)cc1-c1ccc2c(c1)CN(C)C(=O)C2` [Compound 94] yielded a Ki on hAT2R [1] of 1300 nM. For the same molecule, the inhibition at 10 µM at hAT1R [2] was found to be 1.5%.

In the case of `CCCCOC(=O)NS(=O)(=O)c1sc(CC(C)C)cc1-c1ccc(OC(F)(F)F)c(Cn2ccnc2)c1` [Compound 47], the inhibition at 10 µM at hAT1R [2] was determined as 1.8%.

On hAT2R [1], `CCOC(=O)NS(=O)(=O)c1sc(CC(C)C)cc1-c1ccc2c(c1)CN(C(C)=O)C2` [Compound 88] came in with a Ki of 870 nM. On hAT1R [2], the inhibition at 10 µM turned out to be 7.7%.

Consider `CCCCOC(=O)NS(=O)(=O)c1sc(CC(C)C)cc1-c1ccc2c(c1)CCN(C(C)=O)C2` [Compound 86, Butyl ((3‐(2‐acetyl‐1,2,3,4‐tetrahydroisoquinolin‐6‐yl)‐5‐isobutylthiophen‐2‐yl)sulfonyl)carbamate], for which the IC50 at hAT2R [3] is 818 nM; at hAT1R [4], above 10000 nM. For the same molecule, affinity on hAT2R [1] was put at a Ki of 56 nM. Besides, the “improvement of hAT2R affinity compared to C38” value on hAT2R [1] (versus C38) amounted to 5 fold. Also, the “improvement of hAT2R affinity compared to amides C93 and C97” value at hAT2R [1] (versus C93 and C97) is recorded as 2 fold. In addition, the inhibition at 10 µM at hAT1R [2] stood at 34%.

For the molecule `CCCCOC(=O)NS(=O)(=O)c1sc(CC(C)C)cc1-c1ccc2c(c1)CN(C(C)=O)C2` [Compound 85], the Ki on hAT2R [1] came to 360 nM. Also, the inhibition at 10 µM at hAT1R [2] worked out at 7.5%.

`CCCCOC(=O)NS(=O)(=O)c1sc(CC(C)C)cc1-c1cccc2c1CN(C(C)=O)C2` [Compound 83]: at hAT2R [1], the IC50 was above 3000 nM and the Ki was above 1500 nM. On hAT1R [2], the inhibition at 10 µM stood at 15%.

Regarding `CCCCOC(=O)NS(=O)(=O)c1sc(CC(C)C)cc1-c1ccc2c(c1)CN(C(C)=O)CC2` [Compound 87], the affinity at hAT2R [1] corresponds to a Ki of 270 nM. Further, the inhibition at 10 µM at hAT1R [2] amounted to 45%.

Values taken from PMC6346239 (ChemistryOpen, 2019).
